Measured values from PMC8747000, “Synthesis, Pharmacological Evaluation, and Computational Studies of Cyclic Opioid Peptidomimetics Containing β^3-Lysine” (Molecules, 2021).
Where two headings read alike, the source gives them in different places. Peptide text beside a SMILES is read from it.

Columns and labels:
[1] = Reversed-phase HPLC retention (chromatographic behavior as indication of lipophilicity); type: physicochemical; conditions: RP-HPLC, Vydac C18 column (5 μm, 4.6 x 250 mm); A 0.1% TFA in water, B 80% acetonitrile in water with 0.1% TFA; linear gradient 0–100% B over 50 min; 1 mL/min; uncalibrated retention time
Text: During the routine LC-MS analysis of analogs RP-171 and RP-172, we noticed a distinct difference in retention times and MS^n patterns for these diastereoisomeric peptides. To confirm our observation, we subjected a mixture of these peptides to LC-MS and MS^n experiments. […] It is interesting that the elution order from the biphenyl column was the same as from the C18 column.
All protected α-amino acids were purchased from Bachem A (Bubendorf, Switzerland). Opioid radioligands, [^3H]DAMGO, [^3H]deltorphin-2, and [^3H]U-69593, and human recombinant opioid receptors were purchased from PerkinElmer (Krakow, Poland). GF/B glass fiber strips were obtained from Whatman (Brentford, UK). Purity of peptides was determined by RP-HPLC and exact mass. Analytical and semi-preparative RP-HPLC was performed using Waters Breeze instrument (Milford, MA, USA) with dual absorbance detector (Waters 2487, MA, USA). […] For LC-MS experiments, Aeris Peptide C18 and Kinetex Biphenyl (Phenomenex, Torrance, CA, USA) were used, in a gradient reversed-phase mode, from 5 to 80% acetonitrile in water (both containing 0.1% HCOOH). ^1H NMR spectra were recorded on a 500 MHz Brucker instrument in DMSO-d6, using residual DMSO as a resonance reference at 2.5 ppm. […]

MOR [2] = molecular target: T1, MOR (Homo sapiens, UniProt P35372); assay: Opioid receptor binding assay, competitive displacement of [3H]DAMGO; parameters: purchased PerkinElmer; host or cells: CHO cells
Protocol: (§1) The binding affinities of cyclopeptides RP-171 and RP-172 toward MOR, DOR, and KOR were determined by competitive binding against [^3H]DAMGO, [^3H][D-Ala^2]deltorphin-2, and U-69593, respectively, using membranes of CHO cells transfected with opioid receptors and are summarized in Table 1.
(§2) The opioid receptor binding assays were performed according to the described method, using commercial membranes of Chinese Hamster Ovary (CHO) cells transfected with human opioid receptors. The binding affinities for MOR, DOR, and KOR were determined by radioligand competition analysis using [^3H]DAMGO, [^3H]deltorphin-2, and [^3H]U-69593, respectively, as specific radioligands, respectively. Membrane preparations were incubated at 25 °C for 120 min with appropriate concentrations of a tested peptide in the presence of 0.5 nM radioligand in a total volume of 0.5 ml of 50 mM Tris/HCl (pH 7.4) containing bovine serum albumin (BSA) (1 mg/mL), bacitracin (50 µg/mL), bestatin (30 µM), and captopril (10 µM). Non-specific binding was determined in the presence of 1 µM naloxone. Incubations were terminated by the rapid filtration through the GF/B Whatman (Brentford, UK) glass fiber strips (pre-soaked for 2 h in 0.5% (v/v) polyethylamine) using Millipore Sampling Manifold (Billerica, MA, USA). The filters were washed three times with 4 ml of ice-cold Tris buffer solution. The bound radioactivity was measured in a Packard Tri-Carb 2100 TR liquid scintillation counter (Ramsey, MN, USA) after overnight extraction of the filters in 4 mL of a Perkin Elmer Ultima Gold scintillation fluid (Wellesley, MA, USA). Three independent experiments for each assay were carried out in duplicate. The data were analyzed by a nonlinear least square regression analysis computer program Graph Pad PRISM 6.0 (Graph Pad Software Inc., San Diego, CA, USA). The IC50 values were determined from the logarithmic concentration–displacement curves, and the values of the inhibitory constants (Ki) were calculated according to the equation of Cheng and Prusoff.

DOR [3] = molecular target: T2, DOR (Homo sapiens, UniProt P41143); assay: Opioid receptor binding assay, competitive displacement of [3H]deltorphin-2; parameters: purchased PerkinElmer; host or cells: CHO cells
Protocol: as §1, §2

KOR [4] = molecular target: T3, KOR (Homo sapiens, UniProt P41145); assay: Opioid receptor binding assay, competitive displacement of [3H]U-69593; parameters: purchased PerkinElmer; host or cells: CHO cells
Protocol: as §1, §2

MOR [5] = molecular target: T1, MOR; assay: Calcium mobilization assay, CHO-MOR cells; type: cell-based; parameters: expressed in transfected cells; host or cells: CHO cells (gift from Prof. Girolamo Calo, University of Padova); conditions: for MOR α ± SEM (intrinsic activity): Emax ratio of tested compound and standard agonist dermorphin, CHO cells co-expressing human MOR and Gαqi5
DOR [6] = molecular target: T2, DOR; assay: Calcium mobilization assay, CHO-DOR cells; type: cell-based; parameters: expressed in transfected cells; host or cells: CHO cells (gift from Prof. Girolamo Calo, University of Padova); conditions: n ≥ 3; for DOR pEC50 (CL95%): CHO cells co-expressing human recombinant DOR and GαqG66Di5, Fluo-4 AM fluorescence, FlexStation II; for DOR α ± SEM (intrinsic activity): Emax ratio of tested compound and standard agonist DPDPE, CHO cells co-expressing human DOR and GαqG66Di5
KOR [7] = molecular target: T3, KOR; assay: Calcium mobilization assay, CHO-KOR cells; type: cell-based; parameters: expressed in transfected cells; host or cells: CHO cells (gift from Prof. Girolamo Calo, University of Padova); conditions: for KOR α ± SEM (intrinsic activity): Emax ratio of tested compound and standard agonist dynorphin A, CHO cells co-expressing human KOR and Gαqi5
[8] = compared with EM-2; cited from earlier work
Text: Endomorphins are very short peptides lacking reactive side chain groups, which makes their cyclization difficult. […] In order to obtain cyclic analogs based on the structure of EM-2 but still to preserve the free N-terminal amino group, we introduced into the sequence of EM-2 additional amino acids with functionalized side chains. A pentapeptide analog Tyr-c[D-Lys-Phe-Phe-Asp]NH2 (designated RP-170), ...

[9] = membranes of CHO cells transfected with human opioid receptors, 0.5 nM [3H]DAMGO, 25 °C, 120 min, 50 mM Tris/HCl pH 7.4, Cheng-Prusoff, mean ± SEM, n = 3, read-out: Ki MOR
[10] = membranes of CHO cells transfected with human opioid receptors, 0.5 nM [3H]deltorphin-2, 25 °C, 120 min, 50 mM Tris/HCl pH 7.4, Cheng-Prusoff, mean ± SEM, n = 3, read-out: Ki DOR
[11] = CHO cells co-expressing human recombinant MOR and Gαqi5, Fluo-4 AM fluorescence, FlexStation II, n ≥ 3, read-out: MOR pEC50 (CL95%) (converted)

Row | SMILES | HPLC tR [1] [min] | Ki (MOR [2]; [9]) [µM] | Ki (DOR [3]; [10]) [µM] | Ki (KOR [4]; membranes of CHO cells transfected with human opioid receptors, 0.5 nM [3H]U-69593, 25 °C, 120 min, 50 mM Tris/HCl pH 7.4, Cheng-Prusoff, mean ± SEM, n = 3, SEM, read-out: Ki KOR) [µM] | loss of affinity for KOR as compared with the parent RP-170 (KOR [4]; ratio of Ki values versus RP-170) [fold] | EC50 (MOR [5]; [11]) [µM] | MOR α ± SEM (intrinsic activity) (MOR [5]; n ≥ 3) | DOR pEC50 (CL95%) (DOR [6]) | DOR α ± SEM (intrinsic activity) (DOR [6]) | EC50 (KOR [7]; CHO cells co-expressing human recombinant KOR and Gαqi5, Fluo-4 AM fluorescence, FlexStation II, n ≥ 3, read-out: KOR pEC50 (CL95%) (converted)) [µM] | KOR α ± SEM (intrinsic activity) (KOR [7]; n ≥ 3) | KOR α ± SEM (intrinsic activity) (KOR [7]; n ≥ 3, SEM) | Ki (KOR [4]; membranes of CHO cells transfected with human opioid receptors, 0.5 nM [3H]U-69593, 25 °C, 120 min, 50 mM Tris/HCl pH 7.4, Cheng-Prusoff, mean ± SEM, n = 3, read-out: Ki KOR) [µM] | KOR pEC50 (CL95%) (KOR [7]; CHO cells co-expressing human recombinant KOR and Gαqi5, Fluo-4 AM fluorescence, FlexStation II, n ≥ 3) | stability in the rat brain homogenate [8] | Ki (MOR [2]; SEM) [µM] | Ki (DOR [3]; SEM) [µM] | Ki (KOR [4]; SEM) [µM] | EC50 (MOR [5]) [µM] | EC50 (KOR [7]) [µM]
1 | NC(=O)[C@@H]1CC(=O)NCCC[C@@H](NC(=O)[C@@H](N)Cc2ccc(O)cc2)CC(=O)N[C@@H](Cc2ccccc2)C(=O)N[C@@H](Cc2ccccc2)C(=O)N1 [RP-171, Tyr-c[(R)-β^3-Lys-Phe-Phe-Asp]NH2] | 14.05 | 0.029 ± 0.00432 | > 1 | 0.42 ± 0.023 | 276 | 0.135 | 0.82 ± 0.02 | inactive | inactive | 1.02 | 0.82 | 0.82 ± 0.05 | – | – | – | – | – | – | – | –
2 | NC(=O)[C@@H]1CC(=O)NCCC[C@H](NC(=O)[C@@H](N)Cc2ccc(O)cc2)CC(=O)N[C@@H](Cc2ccccc2)C(=O)N[C@@H](Cc2ccccc2)C(=O)N1 [RP-172, Tyr-c[(S)-β^3-Lys-Phe-Phe-Asp]NH2] | 14.36 | 0.95 ± 0.045 | > 1 | – | – | 3.55 | 0.45 ± 0.02 | inactive | inactive | – | inactive | – | > 1 | inactive | – | – | – | – | – | –
3 | NC(=O)[C@@H]1CC(=O)NCCCC[C@@H](NC(=O)[C@@H](N)Cc2ccc(O)cc2)C(=O)N[C@@H](Cc2ccccc2)C(=O)N[C@@H](Cc2ccccc2)C(=O)N1 [RP-170, Tyr-c[D-Lys-Phe-Phe-Asp]NH2] (HELM PEPTIDE1{Y.[dK].F.F.D.[am]}$PEPTIDE1,PEPTIDE1,2:R3-5:R3$$$V2.0) | – | – | – | – | – | – | – | inactive | inactive | – | – | – | – | – | much more stable than EM-2 | 0.00055 ± 2e-05 | 0.198 ± 0.0045 | 0.00152 ± 0.0002 | 0.00117 | 0.00251
